These compounds were tested on Tetrahymena pyriformis (assay: 48 h IGC50 (-log10 mol/L); higher = more toxic).

Structure (SMILES)	48 h IGC50 (-log10 mol/L)
O=C1CCO1	2.88
CCCCCCC(O)CC (centres undefined)	3.36
CCCCC(O)CO (centres undefined)	1.73
C/C=C/C(=O)OC(C)(C)C	2.36
C#CC(=O)OCC	4.7
O=[N+]([O-])c1cc(F)ccc1F	3.33
N#CCc1ccc(Cl)cc1	3.66
CC#CC(=O)OC	3.4
COP(=O)(OC)OC	1.18
O=C1C=Cc2ccccc2C1=O	6.2
C/C=C/C(=O)OC	2.08
O=[N+]([O-])c1ccc(Cl)cc1Cl	3.99
Oc1c(F)c(F)c(O)c(F)c1F	4.84
CCc1cccc2ccccc12	3.89
Cc1cccc(C)c1N=C=S	4.5
CC(C)(Br)C(=O)C(C)(C)Br	3.51
CCCCCC#CC(=O)O	2.94
CCCCCOC=O	2.22
CCC#CC(C)O (centres undefined)	3.51
CC(C)CC(=O)O	2.66
Cc1nc2ccccc2nc1C	3.25
O=Cc1cccc([N+](=O)[O-])c1O	3.87
O=C(Oc1ccccc1)c1ccccc1	4.35
NCCc1ccccn1	2.26
CCOC(=O)C(C)Br (centres undefined)	4.06

Structure (SMILES)	48 h IGC50 (-log10 mol/L)
CCCCCCC#CC(=O)OC	4.32
CCCCOc1ccc(O)cc1	3.7
Oc1ccc(O)cc1	3.47
CCCC(=O)OC	1.75
C=CC(=O)OCCCCC	3.54
CCC(=O)Cc1ccccc1	2.79
OCCc1cccc2ccccc12	3.27
COc1cc(O)cc(Cl)c1	3.76
CC(C)COC(=O)c1ccccc1	3.98
C=CCOC(=O)CC	2.12
O=Cc1ccc(Cl)c([N+](=O)[O-])c1	4.19
Cc1ccc(O)c([N+](=O)[O-])c1	3.57
CCCCCN	2.52
Cc1ccc2nc(C)ccc2c1	3.68
C/C=C(\C)C(=O)OC	2.38
N#CCCCCBr	2.79
NC(=O)Oc1ccccc1	2.61
CC(C)(C)CCO	2.26
N#Cc1c(O)ccc(O)c1C#N	2.56
NCCO	1.11
Nc1c([N+](=O)[O-])ccc2ncccc12	3.92
S=C=Nc1ccc2c(c1)CCC2	5.48
COc1cccc(C=O)c1O	3.38
CCc1ccc(Br)cc1	3.67
CC(C)C(=O)O	2.67

Structure (SMILES)	48 h IGC50 (-log10 mol/L)
CC(O)CBr (centres undefined)	1.81
CC(C)C[C@H](N)CO	2.38
O=C(O)Cc1ccc(O)cc1	1.5
COc1cc(C=O)cc(O)c1OC	2.61
CCOC(=O)CCCl	2.5
O=C(O)CCC(=O)O	2.06
N#Cc1cccc(N)c1	2.53
OCc1ccccc1F	2.33
CCCCCC(C)O (centres undefined)	2.53
CCCCCCCCC(C)O (centres undefined)	3.99
NC(=O)c1ccco1	1.56
CCc1ccc(CO)cc1	3.07
CCC=CCCC=CC=O	4.34
Cc1cc(=O)[nH]cc1[N+](=O)[O-]	2.83
CCCCCCOC=O	2.62
CC1=CC(=O)c2c(O)cccc2C1=O	5.2
COc1ccc(C(=O)c2ccccc2)c(O)c1	4.42
CC(=O)OC(C)C	1.41
O=Cc1cc(I)cc(I)c1O	5.34
O=Cc1ccc(Br)cc1	3.59
Oc1cccc(O)c1O	3.85
N#CC(Cl)Cl	3.97
CCC#CC(=O)OCC	3.82
CCC(=O)NC	1.47
O=C(O)c1ccc(Cl)c(Cl)c1	3.31

Structure (SMILES)	48 h IGC50 (-log10 mol/L)
CC(CN)c1ccccc1 (centres undefined)	2.72
CCOc1ccc(C(=O)OC)cc1	3.58
CCCCCC#CC(=O)OC	4.04
c1ccnnc1	1.59
NNC(=O)c1ccccc1O	3.18
C=CCOC(=O)CCCCCCCCC	3.48
N#CCBr	5.23
Nc1c(Cl)c(Cl)cc(Cl)c1Cl	4.76
COC(=O)c1cc(O)cc(O)c1	2.86
O=Cc1ccc(I)o1	3.33
Cc1cc(Br)cc(Cl)c1O	4.28
COC(=O)CCCC(=O)OC	1.83
Fc1cccc2ccccc12	3.39
COC(N)=O	1.02
CCSc1ccccc1	3.3
CCc1ccc(-c2ccccc2)cc1	4.97
COc1cc(CCO)ccc1O	2.82
CNCCO	1.18
CCCCCCCCCC(C)O (centres undefined)	4.58
O=C1CCCC(=O)C1	2.07
O=[N+]([O-])c1ccc(F)c(Cl)c1	3.8
O=[N+]([O-])c1ccccc1Br	3.75
C=CSc1ccccc1	3.42
O=[N+]([O-])c1c(F)c(F)c(F)c(F)c1F	5.43
CCC(=O)N(C)C	1.43

Structure (SMILES)	48 h IGC50 (-log10 mol/L)
O=C1C=CC(=O)c2c(O)ccc(O)c21	5.83
C#CC(C)(O)CCC (centres undefined)	2.1
O=[N+]([O-])c1ccc(CBr)cc1	5.31
Brc1ccncc1.Cl	2.44
C/C=C/C(C)=O	3.54
C=C(C)C(=O)OCCC	2.35
COC(=O)c1ccc(C(=O)OC)c([N+](=O)[O-])c1	3.43
NCCCCc1ccccc1	3.62
O=C(CCl)CCl	5.05
CCCCCC(=O)Cl	3.34
CC(C)CC#N	2.12
O=Cc1ccc(O)c(O)c1	3.11
Cc1ccc(N)cc1Cl	3.39
CCCCCCC#CC(=O)OCC	4.38
CCOC(=O)c1ccc(Br)cc1	4.33
CCCOC(=O)/C=C/c1ccccc1	4.23
OC(CBr)CBr	3.57
CCCCCCN=C=S	4.75
CC(=O)c1cc(C)c(C)cc1O	3.71
Nc1cc([N+](=O)[O-])cc(Cl)c1O	4.2
CC(C)C#N	1.38
CCN(CC)CCO	1.5
C#CC(C)(C)N	2.09
CCc1ccc([N+](=O)[O-])cc1	3.43
CCCCC(=O)OCCC	3.01

Structure (SMILES)	48 h IGC50 (-log10 mol/L)
CCOC(=O)C(Br)C(C)C (centres undefined)	3.02
Oc1ccc(O)c(O)c1	3.44
C#CCNC	2.02
COC(=O)c1ccccc1	3.23
N#CCc1ccccc1	2.64
CC(O)C(c1ccccc1)c1ccccc1 (centres undefined)	3.75
N#CCCCBr	2.54
CCOC(=O)c1ccc(OC)cc1	3.77
O=C(O)c1cccc(O)c1	2.19
CCC(C)(O)c1ccccc1 (centres undefined)	3.06
O=[N+]([O-])c1ccc2ccccc2c1O	4.36
Cc1cnc2ccccc2n1	3.02
BrCCCc1ccccc1	3.69
CCCC(CCC)C(=O)O	3.03
CCCN=C=S	4.69
O=C(O)CCCCCCCCCCC(=O)O	2.91
CCCCCCCC#N	3.28
OCC(O)CBr (centres undefined)	1.79
O=C(O)CCCl	2.67
CC(=O)OC/C=C/c1ccccc1	3.59
CCCCCC#CC(=O)OCC	4.24
COC(=O)C=C(C)C	1.94
C#CCN(C)C	1.85
COC(=O)CCCBr	3.07
C=C(C)C#N	1.35

Structure (SMILES)	48 h IGC50 (-log10 mol/L)
CC/C=C\CO	1.9
Cc1cc(Cl)c([N+](=O)[O-])cc1[N+](=O)[O-]	5.33
COc1ccc(C(C)=O)cc1	2.87
CCC(O)CO (centres undefined)	0.952
Cc1ccc(N)cc1C	2.84
CCC(N)=O	0.91
CC/C=C\CCO	2.19
O=[N+]([O-])c1cc(F)ccc1O	4.38
CCOC(=O)C(C)CC (centres undefined)	2.11
Cc1c(O)ccc(O)c1C	4.41
C=CC(=O)CCCCC	4.92
CCCCCOc1ccc(O)cc1	4.36
COC(=O)c1cccc(O)c1	2.95
CC(C)(C)OC(=O)CCl	3.85
O=[N+]([O-])c1ccccc1F	3.23
OC1Cc2ccccc2C1	2.31
O=C(CBr)C(=O)CBr	4.76
CCc1cccc(N)c1	2.97
O=[N+]([O-])c1cc(Cl)c(Cl)c(Cl)c1	4.55

From EPA's aquatic toxicity sets
